pIC50: −log10 of the molar value. Where two headings read alike, the source gives them in different places.
How the values were obtained:
[1] = test system: HCT-15 human colon carcinoma with P-glycoprotein mediated resistance; experiment: Xenograft efficacy in nude mice; format: in vivo
Protocol: HCT-15 tumor bearing nude mice were treated with either 200 mg/kg Kevetrin IV on Days 7, 9, 11 or 22 mg/kg Taxol on Days 7, 9, 11 and 13 post tumor.

[2] = test system: head and neck cancer cell lines; experiment: Activity spectra, MTT assay; format: cell-based, human; conditions: three head and neck cancer cell lines
Protocol: (§1) The indicated values are calculated as follows: log(IC50 individual cell line−IC50 average). Negative values indicate that the cell line is more sensitive than the average, whereas positive values indicate that the cell line is more resistant than the average. […] The activity of Kevetrin was more marked than that of cisplatin toward lung, head and neck, breast, ovary, and colon cell lines.

leukemias = experiment: Activity spectra, MTT assay; format: cell-based, human
Protocol: as §1

[3] = Weight loss due to Kevetrin in tumor bearing mice; format: in vivo
Protocol: Animal weights of mice following treatment with either 100 or 200 mg/kg Kevetrin IV on Day 0 are shown.
(§2) The mice were observed daily for any adverse affects. Mice body weights were taken prior to treatment and every other day during and post treatment. If an animal became unwell, any treatment of that animal was suspended. If there was no recovery, the animal was sacrificed. […] Mice tumor size measurements were taken prior to treatment and every other day during and post treatment. The same scientist was responsible for taking the tumor measurements throughout the study.
(§3) The dosing procedure began the day the mice were randomized and grouped. The dose was administered, as discussed in the following paragraph, on days 7, 9 and 11 following tumor implantation. Each dose was administered via the tail vein.
When Kevetrin was administered intravenously (IV) to animals bearing tumors, the weight loss due to the administration of the compound was within acceptable limits. […] Both these concentrations may be used to establish the efficacy of Kevetrin.

malignant glioma cells = experiment: Viability of human tumor cell lines; format: cell-based
Text: (§4) The results are set forth below.

[4] = test system: DU-145, HCT-116, or HT-29 carcinoma cells; experiment: Time dependence of Kevetrin cytotoxicity, MTT assay; format: cell-based, human; conditions: exposure 5 minutes to 120 hours; DU-145, HCT-116, HT-29
Protocol: Human carcinoma cells were exposed to different concentrations of Kevetrin for 5, 10, 20, 30, or 45 minutes or 1, 2, 6, 24, or 120 hours. Cellular viability expressed as IC50 was plotted verses time of Kevetrin exposure as measured using the MTT assay.
To determine the influence of exposure time on the cytotoxic effects of Kevetrin, DU-145, HCT-116, or HT-29 carcinoma cells were exposed to different concentrations of Kevetrin for 5, 10, 20, 30, or 45 minutes or 1, 2, 6, 24, or 120 hours. […] The time dependence was particularly dramatic for exposure times […]. In contrast, extending the drug exposure time beyond 24 hours had no influence on the cytotoxicity.

[5] = test system: MDA-MB-231 human breast carcinoma; experiment: Xenograft efficacy in nude mice; format: in vivo
Protocol: MDA-MB-231 human breast carcinoma bearing mice were treated with 200 mg/kg Kevetrin IV days 7, 9, and 11 compared to 22 mg/kg Taxol IV Days 7, 9, 11 and 13.
(§5) The cells were cultured in 10% FBS RPMI medium. The cells were obtained at passage 5 for further expansion for this efficacy study. Nude mice (Nu/Nu), both male (20 to 24 g) and female (19 to 22 g), were purchased at 6 to 8 weeks old from Charles River Laboratories. These mice were naïve at the beginning of the study and were identified by ear punching. The mice were left for five days to become acclimated to their new environment. Mice were implanted with human tumor cells in a 50:50 mix of RPMI:Matrigel subcutaneously in the right flank of each mouse. Dosing began when tumors reached an average volume of 100 mm^3.
as §2
(§6) Nude mice were implanted with 5×10^6 tumor cells in a 50:50 mix of RPMI:Matrigel subcutaneously in the right flank of each mouse. […]

[6] = test system: all tumor cell lines tested; experiment: Activity spectra, MTT assay; format: cell-based, human; conditions: read-out: average IC50 for all cell lines tested
Protocol: The indicated values are calculated as follows: log(IC50 individual cell line−IC50 average). Negative values indicate that the cell line is more sensitive than the average, whereas positive values indicate that the cell line is more resistant than the average.
as §1

[7] = test system: A549 multi-drug resistant human lung carcinoma; experiment: Xenograft efficacy in nude mice; format: in vivo
Protocol: Nude mice were implanted with 5×10^6 tumor cells in a 50:50 mix of RPMI:Matrigel subcutaneously in the right flank of each mouse. Dosing began when tumors reached an average volume of 100 mm^3, usually reached by day 14 post implant, and was carried out for 8 days. […]

HT-29 colon carcinoma = experiment: Xenograft efficacy in nude mice; format: in vivo
Protocol: HT-29 tumor bearing nude mice were treated with either 200 mg/kg Kevetrin IV or 5-FU on Days 7, 9, and 11.
as §5, §2, §6

SCC-61 = experiment: Cytotoxicity of Kevetrin, cell viability (MTT); format: cell-based; conditions: Homo sapiens; SCC-61 squamous cell carcinoma; continuous exposure for three doubling times; read-out: IC50 Concentration
Text: as §4

LnCap = experiment: Cytotoxicity of Kevetrin, cell viability (MTT); format: cell-based; conditions: Homo sapiens; LnCap prostate carcinoma; continuous exposure for three doubling times; read-out: IC50 Concentration
Text: as §4

SCC 15 = experiment: Cytotoxicity of Kevetrin, cell viability (MTT); format: cell-based; conditions: Homo sapiens; SCC 15 squamous cell carcinoma; continuous exposure for three doubling times; read-out: IC50 Concentration
Text: as §4

HT-29 = experiment: Cytotoxicity of Kevetrin, cell viability (MTT); format: cell-based; conditions: Homo sapiens; HT-29 colon carcinoma; continuous exposure for three doubling times; read-out: IC50 Concentration
Text: as §4

SW-480 = experiment: Cytotoxicity of Kevetrin, cell viability (MTT); format: cell-based; conditions: Homo sapiens, SW480; SW-480 colon carcinoma; continuous exposure for three doubling times; read-out: IC50 Concentration
Text: as §4

Colo 205 = experiment: Cytotoxicity of Kevetrin, cell viability (MTT); format: cell-based; conditions: Homo sapiens; Colo 205 colon carcinoma; continuous exposure for three doubling times; read-out: IC50 Concentration
Text: as §4

HCT-116 = experiment: Cytotoxicity of Kevetrin, cell viability (MTT); format: cell-based; conditions: Homo sapiens; HCT-116 colon carcinoma; continuous exposure for three doubling times; read-out: IC50 Concentration
Text: as §4

DU-145 = experiment: Cytotoxicity of Kevetrin, cell viability (MTT); format: cell-based; conditions: Homo sapiens; DU-145 prostate carcinoma; continuous exposure for three doubling times; read-out: IC50 Concentration
Text: as §4

MCF-7 = experiment: Cytotoxicity of Kevetrin, cell viability (MTT); format: cell-based; conditions: Homo sapiens, MCF7; MCF-7 breast carcinoma; continuous exposure for three doubling times; read-out: IC50 Concentration
Text: as §4

SKOV-3 = experiment: Cytotoxicity of Kevetrin, cell viability (MTT); format: cell-based; conditions: Homo sapiens, SK-OV-3; SKOV-3 ovarian carcinoma; continuous exposure for three doubling times; read-out: IC50 Concentration
Text: as §4

[8] = test system: PC-3 human prostate cancer; experiment: Xenograft efficacy in nude mice; format: in vivo
Protocol: PC-3 tumor bearing nude mice were treated with either 200 mg/kg Kevetrin IV on Days 7, 9, 11 or 10 mg/kg cisplatin on Day 7.
as §5, §2, §6

[9] = test system: NCI-H1975 multi-drug resistant human lung carcinoma; experiment: Xenograft efficacy in nude mice; format: in vivo
Protocol: as §5, §2
Nude mice were implanted with 5×10^6 tumor cells in a 50:50 mix of RPMI:Matrigel subcutaneously in the right flank of each mouse. Dosing began when tumors reached an average volume of 100 mm^3, usually reached by day 14 post implant, and was carried out for 8 days. A necropsy was performed 41 days after treatment ended.
as §3
Efficacy of Kevetrin 200 mg/kg Days 7, 9, & 11 Against Taxol at 22 mg/kg on Days 7, 9, 11 & 13 in NCI-H1975 Multi-Drug Resistant Human Lung Carcinoma.
The animals were implanted subcutaneously with another multi-drug resistant human lung carcinoma and the compounds were injected IV as per the schedule. […] The tumor growth was delayed about 9 days for Taxol treated animals and about 24 days more than the untreated controls. The results are depicted in FIG. 9.

[10] = 200 mg/kg Kevetrin IV days 7, 9, 11
[11] = Taxol 22 mg/kg IV days 7, 9, 11, 13

Cl.N#CCCCSC(=N)N [Kevetrin, S-(3-cyanopropyl)isothiourea hydrochloride]
tumor growth delay more than the Taxol treated and the untreated control [1, 10]: 15 days
activity toward head and neck cancer cell lines [2]: showed activity toward all of the cell lines
activity toward leukemias (leukemias): comparatively limited activity
weight loss of the body weight ([3]; 100 mg/kg intravenously on days 7, 9, and 11, tumor bearing mice): 6.8%
weight loss of the body weight ([3]; 200 mg/kg intravenously on days 7, 9, and 11, tumor bearing mice): 9.3%
IC50 (malignant glioma cells): ~0.03 µg/mL
time dependence of cytotoxicity [4]: Clear time-dependent cytotoxic effects
tumor growth delay more than the untreated control [5, 10]: 32 days
tumor growth delay more than the Taxol treated animals ([5]; 200 mg/kg Kevetrin IV days 7, 9, 11 vs 22 mg/kg Taxol IV days 7, 9, 11, 13): 12 days
pIC50 ([6]; Homo sapiens): 6.31
tumor growth delay more than the untreated controls [7, 10]: about 26 days
tumor growth delay more than the untreated control (HT-29 colon carcinoma; [10]): 33 days
tumor growth delay more than the 5-FU treated animals (HT-29 colon carcinoma; 200 mg/kg Kevetrin IV days 7, 9, 11 vs 5-FU): 10 days
IC50 (SCC-61): 64 µg/mL
IC50 (LnCap): 52 µg/mL
IC50 (SCC 15): 12 µg/mL
IC50 (HT-29): 29 µg/mL
IC50 (SW-480): 62 µg/mL
IC50 (Colo 205): 6 µg/mL
IC50 (HCT-116): 21 µg/mL
IC50 (DU-145): 64 µg/mL
IC50 (MCF-7): 68 µg/mL
IC50 (SKOV-3): 58 µg/mL
tumor growth delay more than the untreated control [8, 10]: 34 days
tumor growth delay more than the Cisplatin treated animals ([8]; 200 mg/kg Kevetrin IV days 7, 9, 11 vs 10 mg/kg Cisplatin IP day 7): 8 days
tumor growth delay more than the untreated controls [9, 10]: about 24 days

CC(=O)O[C@H]1C(=O)[C@@]2(C)[C@H]([C@H](OC(=O)c3ccccc3)[C@]3(O)C[C@H](OC(=O)[C@H](O)[C@@H](NC(=O)c4ccccc4)c4ccccc4)C(C)=C1C3(C)C)[C@]1(OC(C)=O)CO[C@@H]1C[C@@H]2O [Taxol, reference compound]
effect on the cancer (in words) [1, 11]: little effect
effect on the cancer (in words) [7, 11]: no effect
effect on the cancer (in words) [9, 11]: limited effect
tumor growth delay [9, 11]: about 9 days

N.N.[Cl][Pt][Cl] [cisplatin, reference compound]
activity toward head and neck cancer cell lines [2]: active toward one of the three cell lines
pIC50 ([6]; MTT assay, continuous exposure for three doubling times): 5.68

From patent US8338454B2, “Nitrile derivatives and their pharmaceutical use and compositions” (Cellceutix Corporation, priority 2009, dated 2012)
